Data from patent publication US12545639B2, “3-substituted phenylamidine compounds, preparation and use thereof” (PI INDUSTRIES LTD., priority 2019, dated 2026).

Legend:
Pyricularia oryzae = test: microbe, parasite or virus in culture; type: cell-based; settings: 168 h, read-out: control compared to the untreated check (radial growth)
Botrytis cinerea = Botrytis cinerea (gray mold) in vitro test, radial growth on potato dextrose agar; type: cell-based; settings: 168 h, 300 ppm in potato dextrose agar, 22° C., 90% relative humidity, seven days, read-out: control compared to the untreated check (radial growth)
Alternaria solani = Alternaria solani (early blight of tomato/potato) in vitro test, radial growth on potato dextrose agar; type: cell-based; settings: 168 h, 300 ppm in potato dextrose agar, 25° C., 60% relative humidity, seven days, read-out: control compared to the untreated check (radial growth)
Phakopsora pachyrhizi = Phakopsora pachyrhizi test in soybean, preventive, in vivo on plants; settings: in Glycine max, read-out: Efficacy (% control), disease severity compared to the untreated check
Rhizoctonia solani = Rhizoctonia solani (rice sheath blight/potato black scurf) in vitro test, radial growth on potato dextrose agar; type: cell-based; settings: 168 h, 300 ppm in potato dextrose agar, 25° C., 60% relative humidity, seven days, read-out: control compared to the untreated check (radial growth)

CCN(C)C=Nc1cc(C)cc(N(C)c2ccc(F)c(OC)c2)c1Cl [Compound 288, N′-(2-chloro-3-((4-fluoro-3-methoxyphenyl)(methyl)amino)-5-methylphenyl)-N-ethyl-N-methylformimidamide]
≥ 70%: inhibition of growth at 300 ppm (Pyricularia oryzae) | inhibition of growth at 300 ppm (Botrytis cinerea) | inhibition of growth at 300 ppm (Alternaria solani)

CCN(C)C=Nc1cc(C)cc(Cc2cc(F)ccc2C)c1Cl [Compound 57, N′-(2-chloro-3-(5-fluoro-2-methylbenzyl)-5-methylphenyl)-N-ethyl-N-methylformimidamide]
≥ 70%: inhibition of growth at 300 ppm (Pyricularia oryzae) | inhibition of growth at 300 ppm (Botrytis cinerea) | inhibition of growth at 300 ppm (Alternaria solani) | pest or weed control at 500 ppm (Phakopsora pachyrhizi)

CCN(C)C=Nc1cc(Cl)cc(N(C)c2cccc(F)c2)c1C [Compound 179, N′-(5-chloro-3-((3-fluorophenyl)(methyl)amino)-2-methylphenyl)-N-ethyl-N-methylformimidamide]
≥ 70%: inhibition of growth at 300 ppm (Pyricularia oryzae) | inhibition of growth at 300 ppm (Botrytis cinerea) | inhibition of growth at 300 ppm (Alternaria solani) | pest or weed control at 500 ppm (Phakopsora pachyrhizi)

CCN(C)C=Nc1cc(F)cc(Cc2cccc(C#N)c2)c1C [Compound 174, N′-(3-(3-cyanobenzyl)-5-fluoro-2-methylphenyl)-N-ethyl-N-methylformimidamide]
≥ 70%: inhibition of growth at 300 ppm (Pyricularia oryzae) | inhibition of growth at 300 ppm (Rhizoctonia solani) | inhibition of growth at 300 ppm (Botrytis cinerea) | inhibition of growth at 300 ppm (Alternaria solani)

CCN(C)C=Nc1cc(C)cc(N(C)c2ccc(F)c(F)c2)c1Cl [Compound 81, N′-(2-chloro-3-((3,4-difluorophenyl)(methyl)amino)-5-methylphenyl)-N-ethyl-N-methylformimidamide]
≥ 70%: inhibition of growth at 300 ppm (Botrytis cinerea) | inhibition of growth at 300 ppm (Alternaria solani) | pest or weed control at 500 ppm (Phakopsora pachyrhizi)

CCN(C)C=Nc1cc(F)cc(N(C)c2cccc(F)c2)c1C [Compound 32, N-ethyl-N′-(5-fluoro-3-((3-fluorophenyl)(methyl)amino)-2-methylphenyl)-N-methylformimidamide]
≥ 70%: inhibition of growth at 300 ppm (Pyricularia oryzae) | inhibition of growth at 300 ppm (Botrytis cinerea) | inhibition of growth at 300 ppm (Alternaria solani) | pest or weed control at 500 ppm (Phakopsora pachyrhizi)

CCN(C)C=Nc1cc(C)cc(N(C)c2cccc(C(C)C)c2)c1Cl [Compound 63, N′-(2-chloro-3-((3-isopropylphenyl)(methyl)amino)-5-methylphenyl)-N-ethyl-N-methylformimidamide]
≥ 70%: inhibition of growth at 300 ppm (Botrytis cinerea) | inhibition of growth at 300 ppm (Alternaria solani)

CCN(C)C=Nc1cc(F)cc(N(C)c2ccc(F)c(F)c2)c1C [Compound 83, N′-(3-((3,4-difluorophenyl)(methyl)amino)-5-fluoro-2-methylphenyl)-N-ethyl-N-methylformimidamide]
≥ 70%: inhibition of growth at 300 ppm (Pyricularia oryzae) | inhibition of growth at 300 ppm (Rhizoctonia solani) | inhibition of growth at 300 ppm (Botrytis cinerea) | inhibition of growth at 300 ppm (Alternaria solani)

CCN(C)C=Nc1cc(F)cc(Cc2ccc(OC(F)(F)F)cc2)c1C [Compound 176, N-ethyl-N′-(5-fluoro-2-methyl-3-(4-(trifluoromethoxy)benzyl)phenyl)-N-methylformimidamide]
≥ 70%: inhibition of growth at 300 ppm (Pyricularia oryzae) | inhibition of growth at 300 ppm (Rhizoctonia solani) | inhibition of growth at 300 ppm (Botrytis cinerea) | inhibition of growth at 300 ppm (Alternaria solani)

CCN(C)C=Nc1cc(C)cc(N(C)c2cc(Cl)ccc2C)c1Cl [Compound 110, N′-(2-chloro-3-((5-chloro-2-methylphenyl)(methyl)amino)-5-methylphenyl)-N-ethyl-N-methylformimidamide]
≥ 70%: inhibition of growth at 300 ppm (Botrytis cinerea) | inhibition of growth at 300 ppm (Alternaria solani)

CCN(C)C=Nc1cc(C#N)cc(Cc2ccc(Cl)cc2)c1C [Compound 311, N′-(3-(4-chlorobenzyl)-5-cyano-2-methylphenyl)-N-ethyl-N-methylformimidamide]
≥ 70%: inhibition of growth at 300 ppm (Pyricularia oryzae) | inhibition of growth at 300 ppm (Rhizoctonia solani) | inhibition of growth at 300 ppm (Botrytis cinerea)

CCN(C)C=Nc1cc(F)cc(Nc2cccc(C)c2F)c1C [Compound 122, N-ethyl-N′-(5-fluoro-3-((2-fluoro-3-methylphenyl)amino)-2-methylphenyl)-N-methylformimidamide]
≥ 70%: inhibition of growth at 300 ppm (Pyricularia oryzae) | inhibition of growth at 300 ppm (Botrytis cinerea) | pest or weed control at 500 ppm (Phakopsora pachyrhizi)

CCN(C)C=Nc1cc(F)cc(Nc2ccccc2)c1C [Compound 8, N-ethyl-N′-(5-fluoro-2-methyl-3-(phenylamino)phenyl)-N-methylformimidamide]
≥ 70%: inhibition of growth at 300 ppm (Pyricularia oryzae) | inhibition of growth at 300 ppm (Botrytis cinerea) | inhibition of growth at 300 ppm (Alternaria solani)

CCN(C)C=Nc1cc(F)cc(Cc2cccc(OC(F)(F)F)c2)c1C [Compound 173, N-ethyl-N′-(5-fluoro-2-methyl-3-(3-(trifluoromethoxy)benzyl)phenyl)-N-methylformimidamide]
≥ 70%: inhibition of growth at 300 ppm (Pyricularia oryzae) | inhibition of growth at 300 ppm (Rhizoctonia solani) | inhibition of growth at 300 ppm (Botrytis cinerea) | inhibition of growth at 300 ppm (Alternaria solani)

CCN(C)C=Nc1cc(F)cc(N(C)c2cc(F)cc(Cl)c2)c1C [Compound 106, N′-(3-((3-chloro-5-fluorophenyl)(methyl)amino)-5-fluoro-2-methylphenyl)-N-ethyl-N-methylformimidamide]
≥ 70%: inhibition of growth at 300 ppm (Botrytis cinerea) | inhibition of growth at 300 ppm (Alternaria solani)

CCN(C)C=Nc1cc(C)cc(Cc2cccc(OC)c2)c1Cl [Compound 28, N′-(2-chloro-3-(3-methoxybenzyl)-5-methylphenyl)-N-ethyl-N-methylformimidamide]
≥ 70%: inhibition of growth at 300 ppm (Pyricularia oryzae) | inhibition of growth at 300 ppm (Rhizoctonia solani) | inhibition of growth at 300 ppm (Alternaria solani) | pest or weed control at 500 ppm (Phakopsora pachyrhizi)

CCN(C)C=Nc1cc(F)cc(Cc2ccc(Br)cc2)c1C [Compound 175, N′-(3-(4-bromobenzyl)-5-fluoro-2-methylphenyl)-N-ethyl-N-methylformimidamide]
≥ 70%: inhibition of growth at 300 ppm (Pyricularia oryzae) | inhibition of growth at 300 ppm (Rhizoctonia solani) | inhibition of growth at 300 ppm (Botrytis cinerea) | inhibition of growth at 300 ppm (Alternaria solani)

CCN(C)C=Nc1cc(Cl)cc(Cc2cccc(C(F)(F)F)c2)c1C [Compound 127, N′-(5-chloro-2-methyl-3-(3-(trifluoromethyl)benzyl)phenyl)-N-ethyl-N-methylformimidamide]
≥ 70%: inhibition of growth at 300 ppm (Pyricularia oryzae) | inhibition of growth at 300 ppm (Rhizoctonia solani) | inhibition of growth at 300 ppm (Alternaria solani) | pest or weed control at 500 ppm (Phakopsora pachyrhizi)

CCN(C)C=Nc1cc(F)cc(N(C)c2cccc(Cl)c2)c1C [Compound 33, N′-(3-((3-chlorophenyl)(methyl)amino)-5-fluoro-2-methylphenyl)-N-ethyl-N-methylformimidamide]
≥ 70%: inhibition of growth at 300 ppm (Pyricularia oryzae) | inhibition of growth at 300 ppm (Botrytis cinerea) | inhibition of growth at 300 ppm (Alternaria solani) | pest or weed control at 500 ppm (Phakopsora pachyrhizi)

CCN(C)C=Nc1cc(C#N)cc(Cc2ccc(F)cc2)c1C [Compound 310, N′-(5-cyano-3-(4-fluorobenzyl)-2-methylphenyl)-N-ethyl-N-methylformimidamide]
≥ 70%: inhibition of growth at 300 ppm (Pyricularia oryzae) | inhibition of growth at 300 ppm (Botrytis cinerea) | inhibition of growth at 300 ppm (Alternaria solani)

CCN(C)C=Nc1cc(Cl)cc(Cc2ccccc2OC(F)(F)F)c1C [Compound 247, N′-(5-chloro-2-methyl-3-(2-(trifluoromethoxy)benzyl)phenyl)-N-ethyl-N-methylformimidamide]
≥ 70%: inhibition of growth at 300 ppm (Pyricularia oryzae) | inhibition of growth at 300 ppm (Rhizoctonia solani) | inhibition of growth at 300 ppm (Botrytis cinerea) | inhibition of growth at 300 ppm (Alternaria solani)

CCN(C)C=Nc1cc(F)cc(Cc2ccccc2OC(F)(F)F)c1C [Compound 170, N-ethyl-N′-(5-fluoro-2-methyl-3-(2-(trifluoromethoxy)benzyl)phenyl)-N-methylformimidamide]
≥ 70%: inhibition of growth at 300 ppm (Pyricularia oryzae) | inhibition of growth at 300 ppm (Rhizoctonia solani) | inhibition of growth at 300 ppm (Botrytis cinerea) | inhibition of growth at 300 ppm (Alternaria solani)

CCc1cccc(N(C)c2cc(Cl)cc(N=CN(C)CC)c2C)n1 [Compound 253, N′-(5-chloro-3-((6-ethylpyridin-2-yl)(methyl)amino)-2-methylphenyl)-N-ethyl-N-methylformimidamide]
≥ 70%: inhibition of growth at 300 ppm (Pyricularia oryzae) | inhibition of growth at 300 ppm (Rhizoctonia solani) | inhibition of growth at 300 ppm (Alternaria solani) | pest or weed control at 500 ppm (Phakopsora pachyrhizi)

CCN(C)C=Nc1cc(F)cc(Cc2ccc(F)c(C(F)(F)F)c2)c1C [Compound 234, N-ethyl-N′-(5-fluoro-3-(4-fluoro-3-(trifluoromethyl)benzyl)-2-methylphenyl)-N-methylformimidamide]
≥ 70%: inhibition of growth at 300 ppm (Pyricularia oryzae) | inhibition of growth at 300 ppm (Rhizoctonia solani) | inhibition of growth at 300 ppm (Alternaria solani) | pest or weed control at 500 ppm (Phakopsora pachyrhizi)
